Legend:
Eimeria acervulina [1] = experiment: Eimeria acervulina sporozoite death rate by component of ginkgo leaf powder; type: cell-based
Experimental: (§1) A certain amount of oocysts of each protozoan was put in a tube containing glass beads and pulverized, and then to remove the crushed oocyst cell wall and other debris, internal sporocysts were purified using the percoll density gradient, and washed with PBS solution. A reagent comprising sodium taurocholic acid (Sigma aldrich, USA) and trypsin (Gibco, USA), respectively, was treated to sporocysts of Eimeria tenella, Eimeria acervulina and Eimeria maxima for excystation and they were incubated, and then they were washed with PBS solution once and protozoa were obtained.

Eimeria tenella [2] = experiment: Intracellular propagation inhibition of Eimeria tenella protozoa in MDBK cells (ITS-1 PCR); type: cell-based; conditions: read-out: Intracellular protozoal propagation inhibitory effect (%)
Experimental: 100,000 MDBK cells (purchased from ATCC) were aliquoted in a 24-well plate, and then incubated at a temperature of 37° C. for 12 hours. The protozoan of Eimeria tenella was obtained similar to the method of Example 2 above. […] A negative control group is a MDBK cell infected by protozoa, and a positive control group means a group in which salinomycin and diclazuril solution was incubated with the Eimeria tenella protozoan. After removing the cells and protozoa inside the cells through pipetting, DNA was extracted from the cells, and PCR was performed using E. tenella ITS-1 (Internal transcribed spacer-1) gene-specific primers. The sequences of the used primers were described in Table 10 above.
Ct values before/after washing for each material were compared to calculate the cell invasion inhibition rate (%) of the protozoa and the intracellular protozoan propagation inhibition rate (%) through treatment of the material, and the result was shown in FIG. 2 and Table 11 below.

Eimeria tenella [3] = experiment: Direct killing of protozoa (sporozoites), Eimeria tenella; type: cell-based; conditions: tested 1 to 500 ppm, vs PBS control
Experimental: (§2) In the present example, protozoan (sporozoite) direct killing ability evaluation was conducted against 3 representative Eimeria kinds known to be infected in most farms (E. tenella, E. acervulina, E. maxima).
as §1

Eimeria tenella [4] = experiment: Cell invasion inhibition of Eimeria tenella protozoa in MDBK cells (ITS-1 PCR); type: cell-based; conditions: read-out: Cell invasion inhibitory effect of protozoan (%)
Experimental: 100,000 MDBK cells (purchased from ATCC) were aliquoted in a 24-well plate, and then incubated at a temperature of 37° C. for 12 hours. […] After removing the cells and protozoa inside the cells through pipetting, DNA was extracted from the cells, and PCR was performed using E. tenella ITS-1 (Internal transcribed spacer-1) gene-specific primers. The sequences of the used primers were described in Table 10 below. Ct values before/after washing for each material were compared and corrected with the ΔCt value of the negative control group to calculate the cell invasion inhibition rate (%) of the protozoa through treatment of each material, and the result was shown in FIG. 2 and Table 11 below.

Eimeria maxima = experiment: Direct killing of protozoa (sporozoites), Eimeria maxima; type: cell-based; conditions: tested 1 to 500 ppm, vs PBS control
Experimental: as §2, §1

Eimeria acervulina [5] = experiment: Direct killing of protozoa (sporozoites), Eimeria acervulina; type: cell-based; conditions: tested 1 to 500 ppm, vs PBS control
Experimental: as §2, §1

Eimeria tenella [6] = experiment: In vivo anticoccidial efficacy in broilers after Eimeria tenella challenge inoculation; conditions: in feed: salinomycin 60 ppm, diclazuril 1 ppm, ginkgo leaf powder 125 ppm; for Anticoccidial index (ACI): Equation 2, out of 200 points; for Lesion index: appendix lesion score x 10; for ADG after challenge inoculation / Survival rate (%): broilers; for ADG after challenge inoculation: before to 7th day after challenge; for Survival rate (%): up to 8th day after challenge; for Oocyst index: from oocyst excretion % of infected negative control; for Daily weight gain compared to negative control group (RWG, %): relative to non-infected negative control; for Appendix lesion score: scale 0-4, 8th day after challenge
Experimental: An in vivo anticoccidial efficacy evaluation test was performed in an animal experiment facility in Gyeongsangnam-do, South Korea. One-day-old female Ross broilers were individually weighed and randomly divided into groups to use in an experiment. Matters and conditions for experimental design were described in Table 2.
For the feed, Korea Feed A1-choi product was used, and each material diclazuril (Yuhan Corporation YUHAN DICLA product), salinomycin (Cheil Bio Cheilsalino-60 product), gallic acid (Sigma product), the ginkgo leaf product prepared in Example 1-2) was added to the feed, respectively, at a concentration described in Table 3 below to be self-mixed. Antibiotics and supplements were not used in general feed and mixed feed, and no anticoccidial agent other than each material was added. Broilers were fed ad libitum throughout the experiment period. After putting 30 1-day-age broilers in cages randomly placed for each of the control group or test group and breeding, general feed (A1-choi product) was fed for 7 days, and then the mixed feed prepared above was ingested by dividing by control group or test group.
The feed formulation administered to the control group (negative control group or positive control group) and test group and whether coccidiosis was induced by Eimeria tenella were described in Table 3 below.
14-day-old broilers were orally inoculated (challenge inoculation) with 10,000 oocysts (over 90% sporulated Eimeria tenella oocysts) per individual to induce coccidiosis.
The anticoccidial efficacy by test group designed in Example 1-3 above was shown as an anticoccidial index (ACI), and the anticoccidial index was calculated by Equation 2 below. The ACI score is out of 200 points, and the higher the ACI score, the more excellent the anticoccidial ability, and when it is 120 points or more to less than 140 points, it is determined that it is effective as an anticoccidial material, and when it is 140 points or more to less than 160 points, it is determined that it is excellent as an anticoccidial material, and when it is 160 points or more, it is determined that the anticoccidial effect is very excellent (Luis Miguel De Pablos et al., Anticoccidial activity of maslinic acid against infection with Eimeria tenella in chickens, Parasitol Res, 2010). Anticoccidial index(ACI)=(survival rate after challenge inoculation (%))+(daily weight gain compared to negative control group(RWG,%))−(lesion score×10)−(fecal oocyst excretion amount index)(Equation 2) • 1) Survival rate: the number of dead individuals was recorded daily, and post mortem autopsy was performed to determine a cause of mortality, and the number of individuals who died due to causes other than coccidiosis was excluded. The survival rate (%) up to the 8th day after challenge inoculation was used for anticoccidial index calculation.
• 3) Lesion scoring: On the 8th day after challenge inoculation, an autopsy was conducted for 4 broilers per cage, and the intestines were incised and opened. Scoring was performed for each coccidial lesion in the appendix region of the broilers. The lesion scoring method was performed by referring to Johnson J K & Reid W M (1970) document (Joyce Johnson, W. Malcolm Reid, Anticoccidial drugs: Lesion scoring techniques in battery and floor-pen experiments with chickens, Experimental parasitology, 1970). The lesion score is on a scale of 0-4, and 0 point corresponds to normal appendix, and 1 point is a mild infection symptom, and 2 points is a moderate infection symptom, and 3 points is a severe infection symptom and 4 points is a case of showing a very severe infection symptom or causing death. A lesion index was calculated by multiplying the measured appendix lesion score by 10, and this was used for anticoccidial index calculation.
• 4) Fecal oocyst excretion amount: the entire feces on the 6˜8th day of challenge inoculation were collected by cage, mixed evenly, and then randomly sampled 3 times in total by 1 g each. […]

Row | Compound | Eimeria acervulina sporozoite death rate (%) (Eimeria acervulina [1]; 8 ppm) | Eimeria acervulina sporozoite death rate (%) (Eimeria acervulina [1]; 16 ppm) | Eimeria acervulina sporozoite death rate (%) (Eimeria acervulina [1]; 31 ppm) | Eimeria acervulina sporozoite death rate (%) (Eimeria acervulina [1]; 63 ppm) | Eimeria acervulina sporozoite death rate (%) (Eimeria acervulina [1]; 125 ppm) | Eimeria acervulina sporozoite death rate (%) (Eimeria acervulina [1]; 250 ppm) | Eimeria acervulina sporozoite death rate (%) (Eimeria acervulina [1]; 500 ppm) | Minimum concentration for killing 50% protozoa (sporozoites) (ppm) (Eimeria tenella [3]) | Minimum concentration for killing 50% protozoa (sporozoites) (ppm) (Eimeria maxima) | Minimum concentration for killing 50% protozoa (sporozoites) (ppm) (Eimeria acervulina [5]) | Anticoccidial index (ACI) (Eimeria tenella [6]) | Lesion index (Eimeria tenella [6]) | ADG after challenge inoculation (Eimeria tenella [6]) [g/day] | Survival rate (%) (Eimeria tenella [6]) | Oocyst index (Eimeria tenella [6]) | Daily weight gain compared to negative control group (RWG, %) (Eimeria tenella [6]) [%] | Appendix lesion score (Eimeria tenella [6]) | other results
1 | O=c1c(O)c(-c2ccc(O)cc2)oc2cc(O)cc(O)c12 [Kaempferol] | 0 | 0 | 0 | 0 | 1 | 27 | 54 |  |  |  |  |  |  |  |  |  |  | 
2 | CC(C)(C)C1(O)CC2OC(=O)CC23C(=O)OC2OC(=O)C(O)C231 (stereo not drawn) [Bilobalide] | 0 | 0 | 0 | 8 | 14 | 41 | 51 |  |  |  |  |  |  |  |  |  |  | 
3 | O=C(O)c1cc(O)c(O)c(O)c1 [Gallic acid, gallic acid] |  |  |  |  |  |  |  | >500 | >500 | >500 |  |  |  |  |  |  |  | inhibition at 5 ppm (Eimeria tenella [2]; 5 ppm, MDBK cells): 0%; inhibition at 10 ppm (Eimeria tenella [2]; 10 ppm, MDBK cells): 0%; Minimum concentration for killing 50% protozoa (sporozoites) (ppm) (Eimeria tenella [3]; listed as gallic acid): > 500 ppm; inhibition at 5 ppm (Eimeria tenella [4]; 5 ppm, MDBK cells, 24 hours): 76%; inhibition at 10 ppm (Eimeria tenella [4]; 10 ppm, MDBK cells, 24 hours): 90.1%
4 | O=c1c(O)c(-c2ccc(O)c(O)c2)oc2cc(O)cc(O)c12 [Quercetin] | 0 | 0 | 0 | 8 | 34 | 47 | 68 |  |  |  |  |  |  |  |  |  |  | 
5 | N#CC(c1ccc(Cl)cc1)c1c(Cl)cc(-n2ncc(=O)[nH]c2=O)cc1Cl (stereo not drawn) [Diclazuril, diclazuril] |  |  |  |  |  |  |  | 500 | >500 | >500 | 148 | 29 | 62 | 97 | 10 | 93 | 2.88 | inhibition at 0.5 ppm (Eimeria tenella [2]; 0.5 ppm, MDBK cells): 45.9%; inhibition at 1 ppm (Eimeria tenella [2]; 1 ppm, MDBK cells): 52.9%; inhibition at 0.5 ppm (Eimeria tenella [4]; 0.5 ppm, MDBK cells, 24 hours): 0%; inhibition at 1 ppm (Eimeria tenella [4]; 1 ppm, MDBK cells, 24 hours): 6.3%
6 | CC[C@@H](C(=O)[C@@H](C)[C@@H](O)[C@H](C)[C@@H]1O[C@@H]([C@@H](CC)C(=O)O)CC[C@@H]1C)[C@H]1O[C@]2(C=C[C@@H](O)[C@]3(CC[C@@](C)([C@H]4CC[C@](O)(CC)[C@H](C)O4)O3)O2)[C@H](C)C[C@@H]1C [Salinomycin, salinomycin] |  |  |  |  |  |  |  | 125 | 250 | 100 | 141 | 27 | 62 | 93 | 20 | 94 | 2.7 | inhibition at 5 ppm (Eimeria tenella [2]; MDBK): 32.2%; inhibition at 10 ppm (Eimeria tenella [2]; MDBK): 34.8%; inhibition at 5 ppm (Eimeria tenella [4]; MDBK, 24 h): 50.1%; inhibition at 10 ppm (Eimeria tenella [4]; MDBK, 24 h): 56.4%

Reference: US12622941B2, “Anticoccidial composition comprising ginkgo leaves and use thereof” (CJ CHEILJEDANG CORPORATION, priority 2020, dated 2026)
